This note sets out measurements from patent US20190151312A1, “HEPARAN SULFATE BIOSYNTHESIS INHIBITORS FOR THE TREATMENT OF DISEASES” (BioMarin Pharmaceutical Inc., priority 2014, published 2019).

pIC50: −log10 of the molar value. A value given as a limit tells only on which side of the number the result lay.

In the test the test system is GM01896 cells (MPS II dermal fibroblasts). Nature of the test: Assay 1: MPS cellular assay, MPS II (heparan sulfate disaccharide biomarkers by LC-MS). In kind it is cell-based, human. Conditions: Homo sapiens, Fibroblast, Assay 1 for MPS II, heparan sulfate disaccharide biomarkers (I2a4, I2a6, I2S0 and/or I2S6), read-out: IC50 Range. Put shortly:
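MPS II patient dermal fibroblasts (GM01896) treated with compound at ≤30 μM for 4 to 21 days. Heparan sulfate GAGs isolated by anion exchange, digested with heparinases I-III, aniline-tagged against [13C6]aniline standards and quantified by LC-MS; IC50 from curve fitting. Viability monitored by alamar blue or ATP.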

Usually pIC50 stands for −log10 of the IC50, conventionally taken in molar units. For `CNC(=O)c1ccc(Nc2cc(-c3ccc4[nH]ncc4c3)nc(N3CCOCC3)n2)cn1` [{5-[(6-(1H-indazol-5-yl)-2-morpholin-4-ylpyrimidin-4-yl)amino](2-pyridyl)}-N-methylcarboxamide], the negative-log IC50 (pIC50) was 6.00 to 6.30.

Take `Cc1nn(C)c2cc(-c3cc(Nc4ccc(-c5ncc[nH]5)cc4)nc(N4CCOCC4)n3)ccc12` [[6-(1,3-dimethyl(1H-indazol-6-yl))-2-morpholin-4-ylpyrimidin-4-yl](4-imidazol-2-ylphenyl)amine]: the pIC50 was greater than 6.30.

For the molecule `Clc1ccc(Nc2cc(-c3cccc4[nH]ncc34)nc(N3CCOCC3)n2)cc1` [N-(4-chlorophenyl)-6-(1H-indazol-4-yl)-2-morpholinopyrimidin-4-amine], the pIC50 was 6.00 to 6.30.

As to `Cn1c(CCN2CCCC2)nc2ccc(-c3cc(Nc4ccc(Cl)cc4)nc(N4CCOCC4)n3)cc21` [(4-chlorophenyl){6-[1-methyl-2-(2-pyrrolidinylethyl)benzimidazol-6-yl]-2-morpholin-4-ylpyrimidin-4-yl}amine], the negative logarithm of the IC50 (pIC50) is greater than 6.30.

In the case of `Cc1ccc(Nc2cc(-c3ccc4c(c3)ncn4C)nc(N3CCOCC3)n2)cc1` [[6-(1-methylbenzimidazol-5-yl)-2-morpholin-4-ylpyrimidin-4-yl](4-methylphenyl)amine], the pIC50 is 6.00 to 6.30.

Take `Cn1nc(CCN2CCOCC2)c2ccc(-c3cc(Nc4ccc5cn[nH]c5c4)nc(N4CCOCC4)n3)cc21` [1H-indazol-6-yl{6-[1-methyl-3-(2-morpholin-4-ylethyl)(1H-indazol-6-yl)]-2-morpholin-4-ylpyrimidin-4-yl}amine]: the pIC50 was 6.00 to 6.30.

Regarding `CC(C)NC(=O)c1ccc(Nc2cc(-c3ccc4ncn(C)c4c3)nc(N3CCOCC3)n2)cc1` [(4-{[6-(1-methylbenzimidazol-6-yl)-2-morpholin-4-ylpyrimidin-4-yl]amino}phenyl)-N-(methylethyl)carboxamide], the pIC50 was 5.30 to 6.00.

Regarding `Cc1cc2ccc(Nc3cc(-c4ccc5c(CCN6CCOCC6)nn(C)c5c4)nc(N4CCOCC4)n3)cc2n1C` [(1,2-dimethylindol-6-yl){6-[1-methyl-3-(2-morpholin-4-ylethyl)(1H-indazol-6-yl)]-2-morpholin-4-ylpyrimidin-4-yl}amine], the pIC50 was 6.00 to 6.30.

With `Cn1nc(CN2CCOCC2)c2ccc(-c3cc(Nc4ccc(Cl)cc4)nc(N4CCOCC4)n3)cc21` [(4-chlorophenyl){6-[1-methyl-3-(morpholin-4-ylmethyl)(1H-indazol-6-yl)]-2-morpholin-4-ylpyrimidin-4-yl}amine], the pIC50 is 5.30 to 6.00.

In the case of `Cc1nc2ccc(-c3cc(Nc4ccc(Cl)cc4)nc(N4CCOCC4)n3)cc2n1C` [[6-(1,2-dimethylbenzimidazol-6-yl)-2-morpholin-4-ylpyrimidin-4-yl](4-chlorophenyl)amine], the negative-log IC50 (pIC50) was 6.00 to 6.30.

`Cn1ncc2ccc(-c3cc(Nc4ccc(-c5ccn[nH]5)cc4)nc(N4CCOCC4)n3)cc21` [[6-(1-methyl(1H-indazol-6-yl))-2-morpholin-4-ylpyrimidin-4-yl](4-pyrazol-5-ylphenyl)amine]: the pIC50 is greater than 6.30.

`Cc1cnn(-c2ccc(Nc3cc(-c4ccc5c(CCN6CCOCC6)nn(C)c5c4)nc(N4CCOCC4)n3)cc2)n1` [[4-(4-methyl(1,2,3-triazol-2-yl))phenyl]{6-[1-methyl-3-(2-morpholin-4-ylethyl)(1H-indazol-6-yl)]-2-morpholin-4-ylpyrimidin-4-yl}amine]: the pIC50 is greater than 6.30.

Consider `Cc1nc2ccc(-c3cc(Nc4ccc(Cl)cc4)nc(N4CCOCC4)n3)cc2n1CCCN1CCOCC1` [(4-chlorophenyl){6-[2-methyl-1-(3-morpholin-4-ylpropyl)benzimidazol-6-yl]-2-morpholin-4-ylpyrimidin-4-yl}amine], for which the pIC50 is 5.30 to 6.00.

Regarding `Cn1ccnc1-c1ccc(Nc2cc(-c3ccc4c(CCN5CCOCC5)nn(C)c4c3)nc(N3CCOCC3)n2)cc1` [[4-(1-methylimidazol-2-yl)phenyl]{6-[1-methyl-3-(2-morpholin-4-ylethyl)(1H-indazol-6-yl)]-2-morpholin-4-ylpyrimidin-4-yl}amine], the pIC50 was 6.00 to 6.30.

For `COCCc1nc2ccc(-c3cc(Nc4ccc(Cl)cc4)nc(N4CCOCC4)n3)cc2n1C` [(4-chlorophenyl){6-[2-(2-methoxyethyl)-1-methylbenzimidazol-6-yl]-2-morpholin-4-ylpyrimidin-4-yl}amine], the pIC50 is 6.00 to 6.30.

For the molecule `Cn1cnc2ccc(-c3cc(Nc4ccc(NC(=O)OC(C)(C)C)cc4)nc(N4CCOCC4)n3)cc21` [(tert-butoxy)-N-(4-{[6-(1-methylbenzimidazol-6-yl)-2-morpholin-4-ylpyrimidin-4-yl]amino}phenyl)carboxamide], the pIC50 is 5.30 to 6.00.

On to `Clc1ccc(Nc2cc(-c3ccc4cn[nH]c4c3)nc(N3CCOCC3)n2)cc1` [N-(4-chlorophenyl)-6-(1H-indazol-6-yl)-2-morpholinopyrimidin-4-amine], for which the pIC50 is 5.30 to 6.00.

In the case of `Cn1ncc2ccc(-c3cc(Nc4ccc(-c5ccc[nH]5)cc4)nc(N4CCOCC4)n3)cc21` [[6-(1-methyl(1H-indazol-6-yl))-2-morpholin-4-ylpyrimidin-4-yl](4-pyrrol-2-ylphenyl)amine], the pIC50 is 5.30 to 6.00.

As for `CNC(=O)c1ccc(Nc2cc(-c3ccc4c(c3)ncn4CCCN3CCOCC3)nc(N3CCOCC3)n2)cc1` [N-methyl[4-({2-morpholin-4-yl-6-[1-(3-morpholin-4-ylpropyl)benzimidazol-5-yl]pyrimidin-4-yl}amino)phenyl]carboxamide], the pIC50 is 5.30 to 6.00.

On to `Cn1ncc2ncc(-c3cc(Nc4ccc(Cl)cc4)nc(N4CCOCC4)n3)cc21` [(4-chlorophenyl)[6-(1-methylpyrazolo[4,5-b]pyridin-6-yl)-2-morpholin-4-ylpyrimidin-4-yl]amine], for which the pIC50 is 6.00 to 6.30.

Turning to `Cc1nncn1-c1ccc(Nc2cc(-c3ccc4cnn(C)c4c3)nc(N3CCOCC3)n2)cc1` [[4-(3-methyl(1,2,4-triazol-4-yl))phenyl][6-(1-methyl(1H-indazol-6-yl))-2-morpholin-4-ylpyrimidin-4-yl]amine], the pIC50 was 6.00 to 6.30.

Take `Cc1nc2ccc(-c3cc(Nc4ccc(Cl)cc4)nc(N4CCOCC4)n3)cc2n1C1CC1` [(4-chlorophenyl)[6-(1-cyclopropyl-2-methylbenzimidazol-6-yl)-2-morpholin-4-ylpyrimidin-4-yl]amine]: the pIC50 was 6.00 to 6.30.

For the molecule `CNC(=O)c1ccc(Nc2cc(-c3ccc4cnn(C5CCC5)c4c3)nc(N3CCOCC3)n2)cc1` [(4-{[6-(1-cyclobutyl(1H-indazol-6-yl))-2-morpholin-4-ylpyrimidin-4-yl]amino}phenyl)-N-methylcarboxamide], the pIC50 was greater than 6.30.

As to `CNC(=O)c1ccc(Nc2cc(-c3ccc4c(c3)ncn4CCCN3CCCC3)nc(N3CCOCC3)n2)cc1` [N-methyl[4-({2-morpholin-4-yl-6-[1-(3-pyrrolidinylpropyl)benzimidazol-5-yl]pyrimidin-4-yl}amino)phenyl]carboxamide], the pIC50 is 6.00 to 6.30.

On to `Clc1ccc(Nc2cc(-c3ccc4c(cnn4CCCN4CCOCC4)c3)nc(N3CCOCC3)n2)cc1` [(4-chlorophenyl){2-morpholin-4-yl-6-[1-(3-morpholin-4-ylpropyl)(1H-indazol-5-yl)]pyrimidin-4-yl}amine], for which the pIC50 was 5.30 to 6.00.

In the case of `Cn1ncc2ccc(-c3cc(Nc4ccc(Cl)cc4)nc(N4CCOCC4)n3)cc21` [(4-chlorophenyl)[6-(1-methyl(1H-indazol-6-yl))-2-morpholin-4-ylpyrimidin-4-yl]amine], the pIC50 was 6.00 to 6.30.

Consider `Cc1nnc(-c2ccc(Nc3cc(-c4ccc5c(C)nn(C)c5c4)nc(N4CCOCC4)n3)cc2)[nH]1` [[6-(1,3-dimethyl(1H-indazol-6-yl))-2-morpholin-4-ylpyrimidin-4-yl][4-(5-methyl(4H-1,2,4-triazol-3-yl))phenyl]amine], for which the pIC50 was greater than 6.30.

`Cn1ccc2cc(Nc3cc(-c4ccc5cnn(C)c5c4)nc(N4CCOCC4)n3)ccc21` [[6-(1-methyl(1H-indazol-6-yl))-2-morpholin-4-ylpyrimidin-4-yl](1-methylindol-5-yl)amine]: the pIC50 was 5.30 to 6.00.

As to `Clc1ccc(Nc2cc(-c3ccc4ncn(CCCN5CCOCC5)c4c3)nc(N3CCOCC3)n2)cc1` [(4-chlorophenyl){2-morpholin-4-yl-6-[1-(3-morpholin-4-ylpropyl)benzimidazol-6-yl]pyrimidin-4-yl}amine], the pIC50 was 6.00 to 6.30.

For `Cc1nc2ccc(-c3cc(Nc4ccc(Cl)cc4)nc(N4CCOCC4)n3)cc2n1CCN1CCCC1` [(4-chlorophenyl){6-[2-methyl-1-(2-pyrrolidinylethyl)benzimidazol-6-yl]-2-morpholin-4-ylpyrimidin-4-yl}amine], the pIC50 is 5.30 to 6.00.

With `Cn1nc(NCCCCN2CCCC2)c2ccc(-c3cc(Nc4ccc(Cl)cc4)nc(N4CCOCC4)n3)cc21` [(4-chlorophenyl)(6-{1-methyl-3-[(4-pyrrolidinylbutyl)amino](1H-indazol-6-yl)}-2-morpholin-4-ylpyrimidin-4-yl)amine], the pIC50 was 6.00 to 6.30.

Consider `Cc1nc2ccc(-c3cc(Nc4ccc(Cl)cc4)nc(N4CCOCC4)n3)cc2n1CCN1CCOCC1` [(4-chlorophenyl){6-[2-methyl-1-(2-morpholin-4-ylethyl)benzimidazol-6-yl]-2-morpholin-4-ylpyrimidin-4-yl}amine], for which the pIC50 is 6.00 to 6.30.

With `Cn1ncc2ccc(-c3cc(Nc4ccc(-c5cc[nH]c5)cc4)nc(N4CCOCC4)n3)cc21` [[6-(1-methyl(1H-indazol-6-yl))-2-morpholin-4-ylpyrimidin-4-yl](4-pyrrol-3-ylphenyl)amine], the pIC50 was 6.00 to 6.30.

On to `Cn1ncc2ncc(-c3cc(Nc4ccc(-c5nnc[nH]5)cc4)nc(N4CCOCC4)n3)cc21` [(4-(4H-1,2,4-triazol-3-yl)phenyl)[6-(1-methylpyrazolo[4,5-b]pyridin-6-yl)-2-morpholin-4-ylpyrimidin-4-yl]amine], for which the pIC50 was greater than 6.30.

Consider `Cn1cnc2ccc(Nc3cc(-c4ccc5cnn(C)c5c4)nc(N4CCOCC4)n3)cc21` [[6-(1-methyl(1H-indazol-6-yl))-2-morpholin-4-ylpyrimidin-4-yl](1-methylbenzimidazol-6-yl)amine], for which the pIC50 is 6.00 to 6.30.
